Experimental findings from PubChem BioAssay (NCI) are described below.

Values joined by “and” are separate entries in the source; they are usually repeats but may differ in a detail not shown here. Equal values may be shown once.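 96-well plates; 48 h exposure; 5 concentrations. Endpoints by linear interpolation between flanking doses. Not reached: highest tested concentration assigned. GI50: concentration for 50% inhibition of growth. TGI: total growth inhibition.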

Experiment in all cases: inhibition of tumour cell growth, NCI panel, 48 h
Experiment [1] relates to SN12C renal.
Experiment [2] deals with SK-OV-3 ovarian.
For experiment [3], the system named is M14 melanoma.
The subject of experiment [4] is BT-549 breast.
The test system of experiment [5] is ACHN renal.
Experiment [6] has as its system NCI-H23 lung.
Experiment [7] concerns COLO 205 colon.
For experiment [8], the system named is HCC-2998 colon.
For experiment [9], the system named is HOP-92 NSCLC.
The test system of experiment [10] is MCF7 breast.

In the case of `Nc1cc2c3ccccc3ccc2c2ccccc12`, the GI50 in experiment [1] was over 100 µM; in experiment [2], over 100 µM; in experiment [3], over 100 µM; in experiment [4], over 77.1 µM; in experiment [5], over 100 µM; in experiment [6] it was over 100 µM. Further, the GI50 is over 100 µM in experiment [7], over 100 µM in experiment [8], over 100 µM in experiment [9] and 20.2 µM in [10]. The TGI in experiment [1], in [2], in experiment [3], in experiment [4], in experiment [5] and in [6] was over 100 µM in each case. The TGI in experiment [7], in experiment [8], in experiment [9] and in experiment [10] was over 100 µM in each case.
As to `COc1cc(OC)c(OC)cc1/C=C/c1ccc2ccccc2n1`, the TGI in [1], in experiment [2], in experiment [3], in experiment [4], in [5] and in experiment [6] was over 10 µM each time. Moreover, the TGI in experiment [7], in experiment [8], in experiment [9] and in experiment [10] was over 10 µM throughout.
With `CCN1C(=O)N(CC)C2C1NN=c1s/c(=C\c3ccc(Br)cc3)c(=O)n12` (stereo not drawn), the GI50 in [1] was 0.512 µM; in experiment [2], 1.84 µM; in experiment [3] it was 0.138 µM; in experiment [4] it was 0.196 µM; in experiment [5], 0.249 µM; in experiment [6], 0.422 µM. For the same molecule, the GI50 in experiment [7] was 0.258 µM; in [8] it was 0.349 µM; in experiment [9] it was 0.0365 µM; in experiment [10] it was 0.0443 µM. Further, the TGI in [1] was over 100 µM; in experiment [2], over 100 µM; in experiment [3] it was over 100 µM; in experiment [4], 16.4 µM; in experiment [5], over 100 µM; in experiment [6], over 100 µM. For the same molecule, the TGI is over 100 µM in experiment [8], over 63.7 µM in [9] and over 100 µM in experiment [10].
Consider `CC1(/C=C/c2ccc(-c3ccccc3)cc2)CCn2cnc3ncnc(c32)N1O` (stereo not drawn), for which the GI50 in experiment [1] was 0.508 µM; in experiment [2], 0.434 µM; in experiment [3] it was 0.265 µM; in experiment [4], 0.495 µM; in experiment [5], 0.281 µM; in experiment [6] it was 0.635 µM. The GI50 in experiment [7] was 0.326 µM; in [8], 0.409 µM; in experiment [9], 3.72 µM; in [10] it was 0.342 µM. The TGI in [1] is 40.7 µM; in [2], 20.4 µM; in experiment [3], 2.49 µM; in experiment [4], 16.9 µM; in experiment [5] it was 14.2 µM; in experiment [6] it was 27.3 µM. The TGI in [7] was 32.8 µM; in [8], 34.6 µM; in experiment [9], 65.6 µM; in [10], over 69.4 µM.
For `CN1CCN(CCCn2c3c(sc4ncccc43)c(=O)n3nnc(-c4ccccc4)c23)CC1`, the GI50 is 14.5 µM in [1]; 18.4 µM in experiment [2]; 4.67 µM in experiment [3]; 14.7 µM in experiment [4]; 1.54 µM in experiment [5]; 1.97 µM in experiment [6]. In addition, the GI50 in [7] was 4.33 µM; in experiment [8] it was 5.12 µM; in [9], 9.5 µM; in experiment [10] it was 1.72 µM. In addition, the TGI came to 28.8 µM in [1]; 33.3 µM in experiment [2]; 9.5 µM in [3]; 30.6 µM in experiment [4]; 3.04 µM in experiment [5]; 4.38 µM in experiment [6]. In addition, the TGI in [7] was found to be 9.07 µM; in [8], 9.97 µM; in [9], 28.4 µM; in experiment [10], 3.16 µM.
On to `Cn1cc(-c2nc(-c3c[nH]c4ccccc34)cs2)c2cccnc21`, for which the GI50 in experiment [1] was 2.09 µM; in experiment [2], 0.523 µM; in experiment [3] it was 0.234 µM; in experiment [4], 0.325 µM; in [5], 0.527 µM; in experiment [6], 1.04 µM. In addition, the GI50 in experiment [7] was 0.188 µM; in experiment [8] it was 0.844 µM; in experiment [9] it was 0.295 µM; in experiment [10] it was 0.325 µM. The TGI in experiment [1] is over 100 µM; in [2] it was over 82.4 µM; in experiment [3], over 54.2 µM; in experiment [4] it was 17.8 µM; in [5], over 100 µM; in [6], over 100 µM. The TGI in experiment [7] was 1.03 µM; in experiment [8], over 79.7 µM; in experiment [9], 17.2 µM; in experiment [10], over 100 µM.
`CC(=O)OCc1cc[c]([Hg][Cl])o1`: the GI50 is 5.24 µM in experiment [1]; 22.5 µM in [2]; 3.11 µM in [3]; 6.43 µM in [4]; 1.81 µM in [5]; 12.1 µM in [6]. Moreover, the GI50 in [7] was 1.63 µM; in [8] it was 15.4 µM; in [9], 2.51 µM; in experiment [10] it was 0.994 µM. Further, the TGI turned out to be 29.9 µM in experiment [1]; 53.6 µM in experiment [2]; 13 µM in experiment [3]; 19.3 µM in experiment [4]; 3.44 µM in experiment [5]; 29.7 µM in [6]. The TGI in experiment [7] stood at 3.29 µM; in [8], 29.2 µM; in experiment [9], 6.36 µM; in [10], 18.3 µM.
In the case of `OCC1OC(N2CCN(C3OC(CO)C(O)C(O)C3O)CC2)C(O)C(O)C1O` (stereo not drawn), the TGI in experiment [1], in [2], in experiment [3], in experiment [4], in experiment [5] and in experiment [6] was over 100 µM in each case. Besides, the TGI in experiment [7], in [8], in experiment [9] and in experiment [10] was over 100 µM throughout.
For `Cn1cc(-c2[nH]c3cc(NC(=O)[C@H](N)C4CCCCC4)cc4c3c2C=NNC4=O)cn1`, the GI50 in [1] is 0.56 µM and 0.55 µM; in [2], 0.302 µM and 0.309 µM; in experiment [3], 0.163 µM and 0.234 µM; in experiment [4] it was 0.215 µM and 0.375 µM; in experiment [5], 0.419 µM and 1.06 µM; in experiment [6], 0.267 µM and 0.197 µM. In addition, the GI50 in experiment [7] was 0.922 µM and 0.632 µM; in experiment [8], 0.472 µM and 0.287 µM; in experiment [9], 0.0783 µM and 0.2 µM; in experiment [10] it was 0.211 µM and 0.209 µM. Also, the TGI in experiment [1] was 13.4 µM and > 10 µM; in experiment [2] it was 11.4 µM and > 10 µM; in [3] it was 0.493 µM and > 4.31 µM; in [4], 1.41 µM and 5.85 µM; in experiment [5], 8.35 µM and > 10 µM; in experiment [6], 9.52 µM and > 10 µM. Also, the TGI was 3.6 µM and > 6.26 µM in experiment [7]; 19.9 µM and > 10 µM in experiment [8]; 0.821 µM and > 4.52 µM in experiment [9]; 15.8 µM and > 10 µM in experiment [10].
On to `O=C(COc1ccc(Cl)cc1Cl)NNc1ccc([N+](=O)[O-])cc1`, for which the GI50 in experiment [1] is 80 µM; in experiment [2], 24 µM; in experiment [3] it was over 100 µM; in experiment [4], 24 µM; in experiment [5], 51.5 µM; in [6], 41.5 µM. The GI50 in [7] is 95.7 µM; in [8], over 100 µM; in experiment [9], 12.1 µM; in experiment [10] it was over 100 µM. Also, the TGI is over 100 µM in experiment [1]; 55 µM in experiment [2]; over 100 µM in experiment [3]; 52 µM in experiment [4]; over 100 µM in experiment [5]; over 100 µM in experiment [6]. Besides, the TGI was over 100 µM in experiment [7], over 100 µM in experiment [8], 31.7 µM in experiment [9] and over 100 µM in experiment [10].
As to `Nc1ncnc2c1ncn2Cc1ccc(CCl)cc1`, the GI50 in [1] was 21.2 µM; in [2], 19.7 µM; in experiment [3], 25.2 µM; in [4] it was 14.3 µM; in experiment [5], 19.4 µM; in experiment [6], 17.5 µM. Besides, the GI50 in [7] was 14.2 µM; in experiment [8], 14.2 µM; in experiment [9], 19 µM; in experiment [10], 11.7 µM. Moreover, the TGI was found to be 35.6 µM in experiment [1]; 40.8 µM in experiment [2]; 60.5 µM in experiment [3]; 28.7 µM in experiment [4]; 34.8 µM in [5]; 37.6 µM in [6]. In addition, the TGI in experiment [7] stood at 31.4 µM; in experiment [8], 29 µM; in experiment [9], 51.6 µM; in experiment [10], 62.7 µM.
In the case of `OC(CBr)C(O)C(O)C(O)CBr` (stereo not drawn), the GI50 in [1] was 15.3 µM and 57.5 µM; in [6], 12 µM and > 61.1 µM; in experiment [9] it was 35.8 µM and > 86.8 µM; in [10] it was 13.7 µM and 40.1 µM. Moreover, the TGI in [1] is over 100 µM; in experiment [2], over 100 µM; in [3], over 100 µM; in [4], over 77 µM; in experiment [5] it was over 100 µM; in experiment [6], over 100 µM. For the same molecule, the TGI in [7], in [8], in experiment [9] and in experiment [10] was over 100 µM throughout.
